Reference: patent US10106577B2, “Agonists of neurotrophin receptors and their use as medicaments” (BIONURE FARMA, S.L., priority 2010, dated 2018)

Key:
TrkA = target: T1, TrkA (Rattus norvegicus, UniProt P35739); assay: Cytometry binding assay in PC12 with antibody anti-p75; conditions: pre-incubation with the antibody anti-p75; growing NGF
T1 construct: PC12 cells expressing both TrkA and p75 receptors were cultivated in normal growth medium; endogenous in cells; host or cells: PC12
Experimental: In order to assess the binding of G79 to the TrkA (PC12 cells) and TrkB receptors (SH-SY5Y), we performed competitive binding assays by flow cytometry. In order to assess the binding competition between p75 and TrkA, PC12 cells expressing both TrkA and p75 receptors were cultivated in normal growth medium. After detaching cells by trypsin solution, 200,000 cells/well were added to tubes for the following incubations. One tube contains control untreated cells. In the other tubes, cells were pre-incubated for 45 minutes with different concentrations of NGF (0-10-20-50-100 ng/ml), that can directly bind both TrkA and p75 receptors, blocking the possible binding of G79 if it competes for the same receptors. Then, without washing the cells, G79 conjugated with FITC fluorescence (100 ng/ml) was added and so incubated the cells for 1 hour. Samples were read in a cytometer (FCAScan).
To detect the binding separately on both receptors, a prior incubation of cells (before NGF incubation) with blocking antibodies was made. The cells were preincubated for 1 hour with blocking antibody anti-p75 (1:100; Chemicon Int.), to detect the binding on TrkA, or blocking antibody anti-TrkA (1:200; AbCam) to detect the binding on p75. […] All the results are expressed as mean channel fluorescence (MCF), which is a measure of the cell surface fluorescence produced by G79-FITC binding.

iNOS = assay: Neuroinflammation in vitro model, organotypic cerebellar culture challenged with LPS, real-time PCR; assay type: cell-based, mice; conditions: G79 100 ng/ml pre-treatment; 24 h after the challenge with LPS
From the text: Neonates mice (day 8 after birth (P8)) were decapitated after anaesthetic IP injection and whole brains were removed aseptically. Cerebellum was separated from the rest of the brain and placed on a metal vibratome plate. Once the cerebellum was attached to the surface of the plate, 400 μm sagittal sections were cut using the vibratome. The slices were then transferred with a plastic Pasteur pipette to a cell culture plate containing an organotypic culture medium (5% CO2 in 50% basal medium with Earle's salt, 25% Hank's buffered salt solution, 25% inactivated horse serum, 5 mg/ml glucose, 0.25 mM L-glutamine and 25 μg/ml penicillin/streptomycin). After separating and isolating each slice, the cerebellar slices were then transferred to 6-well plates (3 slices for each well) containing a 30 mm culture plate insert with 0.4 μm pores (Millipore) and 1 ml full culture medium, pre-conditioned by incubation for at least 2 hours at 37° C., and 5% CO2 was added into each well below the insert. […]
Organotypic slices collected from the LPS stimulation experiment were homogenized in RNA lysis buffer. […] Primers and target-specific fluorescence-labeled TaqMan probes were purchased from Applied Biosystems (TaqMan Gene Expression assays). […] The expression of the gene tested was quantified relative to the level of the housekeeping gene GAPDH.

IL-1β = assay: Neuroinflammation in vitro model, organotypic cerebellar culture challenged with LPS, ELISA; assay type: cell-based, mice; conditions: G79 100 ng/ml pre-treatment; LPS 15 μg/ml
From the text: (§1) Neonates mice (day 8 after birth (P8)) were decapitated after anaesthetic IP injection and whole brains were removed aseptically. Cerebellum was separated from the rest of the brain and placed on a metal vibratome plate. Once the cerebellum was attached to the surface of the plate, 400 μm sagittal sections were cut using the vibratome. The slices were then transferred with a plastic Pasteur pipette to a cell culture plate containing an organotypic culture medium (5% CO2 in 50% basal medium with Earle's salt, 25% Hank's buffered salt solution, 25% inactivated horse serum, 5 mg/ml glucose, 0.25 mM L-glutamine and 25 μg/ml penicillin/streptomycin). After separating and isolating each slice, the cerebellar slices were then transferred to 6-well plates (3 slices for each well) containing a 30 mm culture plate insert with 0.4 μm pores (Millipore) and 1 ml full culture medium, pre-conditioned by incubation for at least 2 hours at 37° C., and 5% CO2 was added into each well below the insert. The six-well plates were kept at 37° C. and under 5% CO2, and half the medium was replaced every 2 days. All the experiments were performed after 1 week of culture in such conditions.
(§2) After one week of organotypic cerebellum culture, the medium of each well was replaced with fresh medium and G79 (100 ng/ml) or placebo (physiologic solution) was added to the wells and kept in incubation for 1 hour. […]

TNFα = assay: as above; assay type: cell-based, mice; conditions: G79 100 ng/ml pre-treatment; LPS 15 μg/ml
From the text: as §1, §2

[1] = PAMPA model of passive BBB permeability; assay type: in vitro ADME; conditions: passive transport
Experimental: PAMPA is used as an in vitro model of passive BBB permeability. An artificial membrane immobilized on a filter is placed between a donor and acceptor compartment. At the start of the test, a drug is introduced in the donor compartment. Following the permeation period, the concentration of the drug in the donor and acceptor compartments are measured using UV spectroscopy. Therefore the permeability of any compound with a UV chromophore can be determined by this method.
The tested compound stock solutions were diluted 200-fold in universal buffer at pH 7.4 and added to the donor wells. The filter membrane was coated with PBL in dodecane and the acceptor well was filled with pH 7.4 buffer. The acceptor filter plate was carefully put on the donor plate to form a ‘sandwich’ (consisting of the aqueous donor with test the compound on the bottom, an artificial lipid membrane in the middle, and an aqueous acceptor on the top). The test compound diffused from the donor well through the lipid membrane and into the acceptor well. The ‘sandwich’ was left undisturbed for 18 hrs while the permeation occurred. The concentration of the test compound in the acceptor, the donor, and the reference wells was determined using the UV plate reader. Effective permeability (Pe) of each compound was calculated by using the pION PSR4p software. Samples were analyzed in triplicate and the average of the three runs was reported. Quality control standards were run with each sample set to monitor the consistency of the analysis set.

T1 sequence (P35739 33-799): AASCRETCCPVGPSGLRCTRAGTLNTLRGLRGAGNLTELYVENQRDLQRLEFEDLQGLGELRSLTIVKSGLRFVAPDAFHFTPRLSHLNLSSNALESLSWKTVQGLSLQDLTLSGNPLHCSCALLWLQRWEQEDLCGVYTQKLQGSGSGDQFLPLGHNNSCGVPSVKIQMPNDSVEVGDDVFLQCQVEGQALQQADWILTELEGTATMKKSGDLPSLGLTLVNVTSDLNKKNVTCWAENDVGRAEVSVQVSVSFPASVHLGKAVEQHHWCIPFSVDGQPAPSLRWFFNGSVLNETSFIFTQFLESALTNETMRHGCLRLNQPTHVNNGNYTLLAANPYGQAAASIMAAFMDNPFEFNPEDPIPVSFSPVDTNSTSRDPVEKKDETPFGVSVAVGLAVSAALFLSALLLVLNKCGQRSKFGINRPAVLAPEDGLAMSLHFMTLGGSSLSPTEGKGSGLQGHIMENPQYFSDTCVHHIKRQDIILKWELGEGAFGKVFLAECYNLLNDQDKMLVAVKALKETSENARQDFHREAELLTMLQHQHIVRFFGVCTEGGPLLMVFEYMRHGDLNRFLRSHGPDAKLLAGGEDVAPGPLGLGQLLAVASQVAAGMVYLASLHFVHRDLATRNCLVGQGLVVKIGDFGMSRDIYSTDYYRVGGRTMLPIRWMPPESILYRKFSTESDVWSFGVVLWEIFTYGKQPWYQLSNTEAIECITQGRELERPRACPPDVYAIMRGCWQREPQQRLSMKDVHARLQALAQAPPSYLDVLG

## CC(C)CN(CC(=O)N(CCCN1CCCC1=O)CC(N)=O)C(=O)CNCCc1ccccc1F [Compound G79, [N-(2-(2′-Fluorophenyl)ethyl)glycyl]-[N-(2-methylpropyl)glycyl]-N-[3-(2′-oxopyrrolidinyl)propyl]glycinamide]
TrkA
  binding on TrkA (MCF of G79-FITC): apparently does not compete with NGF for the binding on TrkA
iNOS
  expression of iNOS compared to placebo pre-treated samples: decrease in the expression of iNOS
IL-1β
  release of IL-1β: did not affect the release of IL-1β
TNFα
  production of TNFα compared to placebo: reduced at 6 and 12 hours
[1]
  crossing the BBB in the PAMPA model (in words): unable to cross the BBB in the PAMPA model
